Assay results taken from patent publication US20230012560A1, “HEPATITIS B ANTIVIRAL AGENTS” (TAIGEN BIOTECHNOLOGY CO., LTD., priority 2019, published 2023).

Test system: HBV (HepAD38 cells)
Assay: Real-Time PCR Assay (extracellular HBV DNA from HepAD38 culture supernatants)
Type: cell-based
Conditions: Hepatitis B virus, 120 h, compound treatment for 5 days without tetracycline, extracellular DNA in culture supernatant quantified by real-time PCR, read-out: EC50 (50% effective concentration)
Description: HepAD38 cells were seeded and cultured on 96-well plates. After incubation for 2 days, cells were fed with compound-containing media without tetracycline. After compound treatment for 5 days, culture supernatants were collected. Extracellular DNA was then extracted using LabTurbo DNA mini kit, and quantified by real-time PCR.
Real-time PCR was performed using an ABI QuantStudio 3 system in a 96-well optical plate format. The PCR mixture containing forward primer (5′-[…]-3′) (SEQ ID NO.1), reverse primer (5′-GGTGAGTGATTGGAGGTTG-3′) (SEQ ID NO.2) and Luna Universal qPCR Master Mix in a final volume of 24 μl was incubated at 95° C. for 10 min followed by 45 cycle of incubation at 95° C. for 10 s and 60° C. for 10 s. Regression analysis was performed using GraphPad Prism 5 to calculate the 50% effective concentration (EC50) values.

Row | SMILES | EC50 [nM]
1 | Cn1cc(S(=O)(=O)N[C@@H]2CCN(S(=O)(=O)C3(C)CC3)C2)c(F)c1C(=O)Nc1ccc(F)c(F)c1 [Compound 2] | < 100
2 | Cn1cc(S(=O)(=O)N[C@@H]2CCN(S(=O)(=O)C3CCCC3)C2)c(F)c1C(=O)Nc1ccc(F)c(F)c1 [Compound 3] | 100 to 300
3 | COCCS(=O)(=O)N1CC[C@@H](NS(=O)(=O)c2cn(C)c(C(=O)Nc3ccc(F)c(F)c3)c2F)C1 [Compound 4] | < 100
4 | CNS(=O)(=O)N1CC[C@@H](NS(=O)(=O)c2cn(C)c(C(=O)Nc3ccc(F)c(F)c3)c2F)C1 [Compound 5] | < 100
5 | CNS(=O)(=O)N1CC[C@@H](NS(=O)(=O)c2cn(C)c(C(=O)Nc3cc(F)c(F)c(F)c3)c2F)C1 [Compound 6] | < 100
6 | CNS(=O)(=O)N1CC[C@@H](NS(=O)(=O)c2c(F)c(C(=O)Nc3ccc(F)c(F)c3)n(C)c2Br)C1 [Compound 8] | < 100
7 | CN(C)S(=O)(=O)N1CC[C@@H](NS(=O)(=O)c2cn(C)c(C(=O)Nc3ccc(F)c(F)c3)c2F)C1 [Compound 9] | < 100
8 | CNS(=O)(=O)N1CC[C@@H](NS(=O)(=O)c2c(F)c(C(=O)Nc3ccc(F)c(F)c3)n3c2CCC3)C1 [Compound 10] | < 100
9 | CNS(=O)(=O)N1CC[C@@H](NS(=O)(=O)c2c(F)c(C(=O)Nc3ccc(F)c(F)c3)n3c2CCCC3)C1 [Compound 11] | 100 to 300
10 | CNS(=O)(=O)N1CC[C@@H](NS(=O)(=O)c2c(Cl)c(C(=O)Nc3cc(F)c(F)c(F)c3)n3c2CCC3)C1 [Compound 12] | < 100
11 | Cn1cc(S(=O)(=O)N[C@@H]2CCN(S(=O)(=O)c3ccc(F)cc3)C2)c(F)c1C(=O)Nc1ccc(F)c(F)c1 [Compound 13] | < 100
12 | Cn1cc(S(=O)(=O)N[C@@H]2CCN(S(=O)(=O)/C=C/c3ccccc3)C2)c(F)c1C(=O)Nc1ccc(F)c(F)c1 [Compound 14] | 100 to 300
13 | CNS(=O)(=O)N1CC[C@@H](NS(=O)(=O)c2cn(C)c(C(=O)Nc3ccc(F)c(C(F)F)c3)c2F)C1 [Compound 16] | < 100
14 | CCn1cc(S(=O)(=O)N[C@@H]2CCN(S(=O)(=O)NC)C2)c(F)c1C(=O)Nc1ccc(F)c(F)c1 [Compound 17] | < 100
15 | CNS(=O)(=O)N1CCC(C)C(NS(=O)(=O)c2cn(C)c(C(=O)Nc3ccc(F)c(F)c3)c2F)C1 (centres unmarked) [Compound 19] | < 100
16 | CNS(=O)(=O)N1CCCC(C)(NS(=O)(=O)c2cn(C)c(C(=O)Nc3ccc(F)c(F)c3)c2F)C1 (centres unmarked) [Compound 20] | < 100
17 | CNS(=O)(=O)N1CCC[C@@H](NS(=O)(=O)c2cn(C)c(C(=O)Nc3cccc(C(F)(F)F)c3)c2F)C1 [Compound 21] | < 100
18 | CCn1cc(S(=O)(=O)N[C@@H]2CCCN(S(=O)(=O)NC)C2)c(F)c1C(=O)Nc1ccc(F)c(F)c1 [Compound 22] | < 100
19 | Cn1cc(S(=O)(=O)NC2CCN(S(=O)(=O)C3(C)CC3)CC2)c(F)c1C(=O)Nc1ccc(F)c(F)c1 [Compound 24] | < 100
20 | CNS(=O)(=O)N1CCC(C)(NS(=O)(=O)c2cn(C)c(C(=O)Nc3ccc(F)c(F)c3)c2F)CC1 [Compound 25] | < 100
21 | CCS(=O)(=O)N1CCC2(NS(=O)(=O)c3cn(C)c(C(=O)Nc4ccc(F)c(F)c4)c3F)CC2C1 (centres unmarked) [Compound 26] | < 100

Row | SMILES | EC50 [nM]
22 | CNS(=O)(=O)N1CCC(NS(=O)(=O)c2cn(C)c(C(=O)Nc3ccc(F)c(F)c3)c2F)C(F)(F)C1 (centres unmarked) [Compound 27] | < 100
23 | CN(C)C(=O)C(=O)N1CC[C@@H](NS(=O)(=O)c2cn(C)c(C(=O)Nc3cc(F)c(F)c(F)c3)c2F)C1 [Compound 30] | < 100
24 | COCCNC(=O)C(=O)N1CC[C@@H](NS(=O)(=O)c2cn(C)c(C(=O)Nc3ccc(F)c(F)c3)c2F)C1 [Compound 32] | < 100
25 | Cn1cc(S(=O)(=O)N[C@@H]2CCN(C(=O)C(=O)NC3CC3)C2)c(F)c1C(=O)Nc1ccc(F)c(F)c1 [Compound 33] | < 100
26 | C#CCNC(=O)C(=O)N1CC[C@@H](NS(=O)(=O)c2cn(C)c(C(=O)Nc3ccc(F)c(F)c3)c2F)C1 [Compound 34] | < 100
27 | CCONC(=O)C(=O)N1CC[C@@H](NS(=O)(=O)c2cn(C)c(C(=O)Nc3cc(F)c(F)c(F)c3)c2F)C1 [Compound 35] | < 100
28 | Cn1cc(S(=O)(=O)N[C@@H]2CCN(C(=O)C(=O)NC3COC3)C2)c(F)c1C(=O)Nc1cc(F)c(F)c(F)c1 [Compound 36] | < 100
29 | Cn1cc(S(=O)(=O)N[C@@H]2CCN(C(=O)C(=O)NCCO)C2)c(F)c1C(=O)Nc1cc(F)c(F)c(F)c1 [Compound 37] | < 100
30 | CC(=O)OCCNC(=O)C(=O)N1CC[C@@H](NS(=O)(=O)c2cn(C)c(C(=O)Nc3cc(F)c(F)c(F)c3)c2F)C1 [Compound 38] | < 100
31 | C[C@@H](NC(=O)C(=O)N1CC[C@@H](NS(=O)(=O)c2cn(C)c(C(=O)Nc3cc(F)c(F)c(F)c3)c2F)C1)C(F)(F)F [Compound 39] | < 100
32 | CNC(=O)C(=O)N1CC[C@@H](NS(=O)(=O)c2cn(C)c(C(=O)Nc3ccc(F)c(C(F)F)c3)c2F)C1 [Compound 40] | < 100
33 | CNC(=O)C(=O)N1CC[C@@H](NS(=O)(=O)c2cn(C)c(C(=O)Nc3ccc(F)c(Cl)c3)c2F)C1 [Compound 41] | < 100
34 | CNC(=O)C(=O)N1CC[C@@H](NS(=O)(=O)c2c(F)c(C(=O)Nc3cc(F)c(F)c(F)c3)n(C)c2Cl)C1 [Compound 43] | < 100
35 | CNC(=O)C(=O)N1CC[C@@H](NS(=O)(=O)c2c(F)c(C(=O)Nc3ccc(F)c(F)c3)n(C)c2C)C1 [Compound 44] | < 100
36 | CCNC(=O)C(=O)N1CC[C@@H](NS(=O)(=O)c2c(F)c(C(=O)Nc3cc(F)c(F)c(F)c3)n3c2CCC3)C1 [Compound 45] | < 100
37 | CNC(=O)C(=O)N1CC[C@@H](NS(=O)(=O)c2c(F)c(C(=O)Nc3cc(F)c(F)c(F)c3)n3c2CCCC3)C1 [Compound 46] | 100 to 300
38 | CNC(=O)C(=O)N1CC[C@@H](NS(=O)(=O)c2c(Cl)c(C(=O)Nc3cc(F)c(F)c(F)c3)n3c2CCC3)C1 [Compound 47] | 100 to 300
39 | CNC(=O)C(=O)N1CC[C@@H](NS(=O)(=O)c2cn(CC(F)F)c(C(=O)Nc3ccc(F)c(F)c3)c2F)C1 [Compound 48] | < 100
40 | CNC(=O)C(=O)N1CC[C@@H](NS(=O)(=O)c2cn(C3CC3)c(C(=O)Nc3ccc(F)c(F)c3)c2F)C1 [Compound 49] | < 100
41 | CNC(=O)C(=O)N1CC[C@@H](NS(=O)(=O)c2cn(CC3CC3)c(C(=O)Nc3ccc(F)c(F)c3)c2F)C1 [Compound 50] | 100 to 300
42 | CCCn1cc(S(=O)(=O)N[C@@H]2CCN(C(=O)C(=O)NC)C2)c(F)c1C(=O)Nc1ccc(F)c(F)c1 [Compound 51] | < 100

Row | SMILES | EC50 [nM]
43 | C=CCn1cc(S(=O)(=O)N[C@@H]2CCN(C(=O)C(=O)NC)C2)c(F)c1C(=O)Nc1ccc(F)c(F)c1 [Compound 52] | < 100
44 | CNC(=O)C(=O)N1CC[C@@H](NS(=O)(=O)c2cn(C3CCCC3)c(C(=O)Nc3ccc(F)c(F)c3)c2F)C1 [Compound 53] | 300 to 1000
45 | CCNC(=O)C(=O)N1CC(C)C(NS(=O)(=O)c2cn(C)c(C(=O)Nc3cc(F)c(F)c(F)c3)c2F)C1 (centres unmarked) [Compound 54] | < 100
46 | CNC(=O)C(=O)N1CC2CC2(NS(=O)(=O)c2cn(C)c(C(=O)Nc3cc(F)c(F)c(F)c3)c2F)C1 (centres unmarked) [Compound 55] | < 100
47 | CCNC(=O)C(=O)N1CC(NS(=O)(=O)c2cn(C)c(C(=O)Nc3cc(F)c(F)c(F)c3)c2F)C1 [Compound 56] | < 100
48 | CCn1cc(S(=O)(=O)N[C@@H]2CCCN(C(=O)C(N)=O)C2)c(F)c1C(=O)Nc1ccc(F)c(F)c1 [Compound 58] | < 100
49 | CNC(=O)C(=O)N1CCC2CC2(NS(=O)(=O)c2cn(C)c(C(=O)Nc3cc(F)c(F)c(F)c3)c2F)C1 (centres unmarked) [Compound 59] | < 100
50 | CNS(=O)(=O)N[C@@H]1CCN(S(=O)(=O)c2cn(C)c(C(=O)Nc3cc(F)c(F)c(F)c3)c2F)C1 [Compound 60] | 300 to 1000
51 | CCNC(=O)C(=O)N[C@@H]1CCN(S(=O)(=O)c2cn(C)c(C(=O)Nc3cc(F)c(F)c(F)c3)c2F)C1 [Compound 61] | 300 to 1000
52 | CNS(=O)(=O)NC1CCN(S(=O)(=O)c2cn(C)c(C(=O)Nc3cc(F)c(F)c(F)c3)c2F)CC1 [Compound 62] | 300 to 1000
53 | CCNC(=O)C(=O)NC1CCN(S(=O)(=O)c2cn(C)c(C(=O)Nc3cc(F)c(F)c(F)c3)c2F)CC1 [Compound 63] | 100 to 300
54 | CCNC(=O)C(=O)N1CCN(S(=O)(=O)c2cn(C)c(C(=O)Nc3cc(F)c(F)c(F)c3)c2F)CC1 [Compound 65] | 300 to 1000
55 | CNS(=O)(=O)N1CCN(S(=O)(=O)c2cn(C)c(C(=O)Nc3cc(F)c(F)c(F)c3)c2F)CC1 [Compound 66] | 100 to 300
56 | CCS(=O)(=O)N1CC2CC1CN2S(=O)(=O)c1cn(C)c(C(=O)Nc2ccc(F)c(F)c2)c1F (centres unmarked) [Compound 67] | 300 to 1000
57 | Cn1cc(S(=O)(=O)NC2CCN(C(=O)C(N)=O)CC2)c(F)c1C(=O)Nc1cc(F)c(F)c(F)c1 [Compound 68] | < 100
58 | CCNC(=O)C(=O)N1CCC(NS(=O)(=O)c2cn(C)c(C(=O)Nc3cc(F)c(F)c(F)c3)c2F)CC1 [Compound 69] | < 100
59 | CCNC(=O)C(=O)N1CCC(NS(=O)(=O)c2cn(C)c(C(=O)Nc3ccc(F)c(C)c3)c2F)CC1 [Compound 71] | < 100
60 | CCNC(=O)C(=O)N1CCC(NS(=O)(=O)c2cn(C)c(C(=O)Nc3cccc(Cl)c3)c2F)CC1 [Compound 72] | < 100
61 | CCNC(=O)C(=O)N1CCC(NS(=O)(=O)c2cn(C)c(C(=O)Nc3cccc(C(F)(F)F)c3)c2F)CC1 [Compound 73] | < 100
62 | CCNC(=O)C(=O)N1CCC(NS(=O)(=O)c2cn(C)c(C(=O)Nc3ccc(F)c(Cl)c3F)c2F)CC1 [Compound 74] | < 100
